Source: patent publication US6911432B2, “Drugs, foods or drinks with the use of algae-derived physiologically active substances” (priority 1997, dated 2005)

Tests used:
[1] = system: iNOS; assay: iNOS expression by western blotting and RT-PCR; format: cell-based; conditions: protein level by western blotting, messenger RNA level by RT-PCR
Method: The confirmation was carried out at protein level by western blotting and at messenger RNA level by RT-PCR. That is, the compounds used in the present invention are useful for treating and preventing diseases that require inhibition of NO production by inhibiting expression of iNOS which is overexpressed by various factors to produce excess NO.

[2] = system: lipid peroxide radical production; assay: inhibition of lipid peroxide radical production (tert-butyl hydroperoxide, bacterial growth readout); format: cell-based, Staphylococcus aureus 3A; design: key to growth of the bacterium (activity of inhibiting lipid peroxide radical production): + represents the sample in which the growth of the bacterium was observed; −represents the sample in which the growth of the bacterium was not observed
Method: Staphylococcus aureus 3A (National Collection Of Type Culture, NCTC 8319) was inoculated into 5 ml of brain heart infusion medium (manufactured by Difco, 0037-17-8) and cultured at 37° C. overnight. The bacterial cells were collected by centrifugation, washed with phosphate buffered saline 3 times and then suspended in phosphate buffered saline at a concentration of 1×10^7 colony forming units/ml. A mixture of 100 μl of the cell suspension, 100 μl of an aqueous sample solution, 100 μl of aqueous 1 mg/ml methemoglobin (manufactured by Sigma M9250) solution, 600 μl of phosphated buffered saline and 100 μl of aqueous 50 mM tert-butyl hydroperoxide (manufactured by Katayama Kagaku, 03-4990) solution were reacted at 37° C. for 30 minutes. To the reaction mixture was added 1 ml of 2×NMP medium [prepared by dissolving 8 g of nutrient broth (manufactured by Difco, 0003-01-6), 5 g of trypton (manufactured by Difco, 0123-17-3), 5 g of NaCl, 10 g of mannitol (manufactured by Nacalai Tesque, 213-03) and 0.035 g of phenol red (manufactured by Nacalai Tesque, 268-07) in distilled water to make the volume up to 500 ml. The pH was adjusted to 7.5 with NaOH and then the mixture was sterilized by filtration] to stop the reaction. The resultant mixture was diluted every 3-folds with NMP medium (prepared by diluting 2×NMP medium 2-folds with sterilized water) to prepare 12 serial dilutions and 160 μl of each dilution was placed in each well of a 96-well microtiter plate. The plate was incubated at 37° C. overnight.
In Table 14, + represents the sample in which the growth of the bacterium was observed, and −represents the sample in which the growth of the bacterium was not observed. The concentration shown in the uppermost line of the table is that of the sample in the reaction mixture in which the sample was reacted with tert-butyl hydroperoxide and the bacterial cells at 37° C. for 30 minutes.

[3] = system: RAW264.7; assay: antiproliferation assay, MTT method; format: cell-based, mouse; conditions: for dilution rate of the dilution added to the group whose absorbance at 590 nm was less than one-half of that of the control group: dilution rate 1 corresponds to 5 mM in medium; for IC50: read-out: IC50 (concentration required for 50% proliferation inhibitory rate)
Method: (§1) Each fraction was sterilized by filtration and its 10 μl portion was placed in a well of a 96 well microtiter plate. […] The cell morphology was observed under an optical microscope. […] The absorbance at 590 nm was measured to determine a cell proliferation rate. (2) A 50 mM solution of agarobiose, agarotetraose or agarohexaose obtained in Example 3-(1) was sterilized by filtration and diluted 2-, 4-, 8-, 16-, 32-, 64- and 128-folds with sterilized water. […] [table] The number in Table 3 represents the dilution rate of the dilution added to the group whose absorbance at 590 nm was less than one-half of that of the control group to which water was added. […] Then, for agarobiose, agarotetraose and agarohexaose, the concentrations required for 50% proliferation inhibitory rate (IC50) are calculated based on the change in the absorbance at 590 nm, and are shown in Table 4.

[4] = reaction with L-cysteine or L-lysine in phosphate buffered saline at 37° C., thin layer chromatography; format: physicochemical
Method: (2) Agarobiose and agarohexaose obtained in Example 14-(1) were dissolved in water to prepare 100 mM aqueous solutions thereof. To each 25 μl of these solutions was added 50 μl of 100 mM aqueous L-cysteine solution, followed by addition of 925 μl of phosphate buffered saline. Then, the mixture was treated at 37° C. for 1 hour or 16 hours. The same reaction was repeated except that an aqueous solution containing the same concentration of L-lysine was used instead of the aqueous L-cysteine solution.
1 μl of a sample from each reaction was spotted on a silica gel sheet 60 F254, developed with 1-butanol:ethanol:water=5:5:1 and detected by orcinol-sulfate method.

[5] = system: WiDr; assay: antiproliferation assay, MTT method; format: cell-based, human; conditions: for dilution rate of the dilution added to the group whose absorbance at 590 nm was less than one-half of that of the control group: dilution rate 1 corresponds to 5 mM in medium; for IC50: read-out: IC50 (concentration required for 50% proliferation inhibitory rate)
Method: as §1

[6] = system: HL-60 cells; assay: antiproliferation assay, MTT method, absorbance at 590 nm; format: cell-based, human; conditions: for dilution rate of the dilution added to the group whose absorbance at 590 nm was less than one-half of that of the control group: 50 mM solution diluted 2- to 128-fold, dilution rate 1 corresponds to 5 mM in the cell culture medium; for IC50: read-out: IC50 (concentration required for 50% proliferation inhibitory rate); for antiproliferation activity against HL-60 cells (in words): preparations and fractions, compared with control to which water was added
[7] = system: A-172; assay: antiproliferation assay, MTT method; format: cell-based; conditions: for dilution rate of the dilution added to the group whose absorbance at 590 nm was less than one-half of that of the control group: dilution rate 1 corresponds to 5 mM in medium; for IC50: read-out: IC50 (concentration required for 50% proliferation inhibitory rate)
Method: as §1

[8] = system: HT-1080; assay: antiproliferation assay, MTT method; format: cell-based; conditions: for dilution rate of the dilution added to the group whose absorbance at 590 nm was less than one-half of that of the control group: dilution rate 1 corresponds to 5 mM in medium; for IC50: read-out: IC50 (concentration required for 50% proliferation inhibitory rate)
Method: as §1

[9] = system: HL-60 cells; assay: viable cell count with Trypan Blue under a microscope; format: cell-based, human; conditions: final concentration 250 μM or 125 μM; for number of viable cells as compared with the group to which water was added: 24 hours or 48 hours
Method: Agarobiose, agarotetraose, agarohexaose and agarooctaose (hereinafter, sometimes, these oligosuccharaides are referred to as agarooligosaccharides) obtained in Example 5 were dissolved in water at a concentration of 2.5 mM or 1.25 mM separately, and were sterilized by filtration. HL-60 cells were suspended in RPMI 1640 medium containing 10% fetal bovine serum at a concentration of 2.5×10^5 cells/4.5 ml and to this suspension was added 0.5 ml of each of the oligosaccharide solutions. The resultant mixture were incubated with 5% CO2 at 37° C. for 24 hours or 48 hours. A part of the cell culture was taken up, followed by addition of Trypan Blue thereto and observing under a microscope to count the number of viable cells.
That is, FIG. 14 illustrates the relation between the incubation time and the number of viable cells when HL-60 cells were cultured with addition of one of the oligosaccharides at the final concentration of 250 μM. FIG. 15 illustrates the relation between the incubation time and the number of viable cells when HL-60 cells were cultured with addition of one of the oligosaccharides at the final concentration of 125 μM. In FIGS. 14 and 15, the horizontal axes represent the incubation time (hrs.) and the vertical axes represent the number of viable cells (× 10^5/5 ml). The closed circle (●) represents the addition of water (control), the open diamond (⋄) represents the addition of agarobiose, the open circle (◯) represents the addition of agarotetraose, the open triangle (Δ) represents the addition of agarohexaose and the open square (□) represents the addition of agarooctaose.

[10] = 0.1 mM sample in the reaction mixture
[11] = 1 mM sample in the reaction mixture
[12] = HL-60, after reaction with L-cysteine at 37° C. for 1 hour
[13] = HL-60, after reaction with L-cysteine at 37° C. for 16 hours
[14] = HL-60, after reaction with L-lysine at 37° C. for 16 hours

| SMILES | inhibition of iNOS expression [1] | activity of inhibiting lipid peroxide radical production (in words) [2] | growth of the bacterium (activity of inhibiting lipid peroxide radical production) [2, 10] | growth of the bacterium (activity of inhibiting lipid peroxide radical production) [2, 11] | dilution rate of the dilution added to the group whose absorbance at 590 nm was less than one-half of that of the control group [3] | IC50 [3] [µM] | spot of the saccharide on thin layer chromatography after reaction ([4]; L-cysteine, 1 hour) | spot of the saccharide on thin layer chromatography after reaction ([4]; L-cysteine, 16 hours) | spot of the saccharide on thin layer chromatography after reaction ([4]; L-lysine, 16 hours) | dilution rate of the dilution added to the group whose absorbance at 590 nm was less than one-half of that of the control group [5] | IC50 [5] [µM] | dilution rate of the dilution added to the group whose absorbance at 590 nm was less than one-half of that of the control group ([6]; HL-60) | antiproliferation activity relative to the same concentration of the unreacted saccharide [6, 12] | antiproliferation activity relative to the same concentration of the unreacted saccharide [6, 13] | antiproliferation activity relative to the same concentration of the unreacted saccharide [6, 14] | IC50 ([6]; HL-60) [µM] | dilution rate of the dilution added to the group whose absorbance at 590 nm was less than one-half of that of the control group [7] | IC50 [7] [µM] | dilution rate of the dilution added to the group whose absorbance at 590 nm was less than one-half of that of the control group [8] | IC50 [8] [µM] | further results |
| --- | --- | --- | --- | --- | --- | --- | --- | --- | --- | --- | --- | --- | --- | --- | --- | --- | --- | --- | --- | --- | --- |
| OC[C@H]1O[C@@H](O[C@H]2[C@H]3OC[C@@H]2O[C@@H](O[C@H]2[C@@H](O)[C@@H](CO)O[C@@H](O[C@H]4[C@H]5OC[C@@H]4OC(O)[C@H]5O)[C@@H]2O)[C@H]3O)[C@H](O)[C@@H](O)[C@H]1O (stereo partly shown) [Agarotetraose, agarotetraose] | inhibit this iNOS expression | strong activity | − | + | 32 | 133 | disappeared | disappeared | disappeared | 8 | 399 | 64 | 1/10 | 1/10 | 1/10 | 97 | 16 | 185 | 16 | 216 | apoptosis corpuscles [9]: apoptosis corpuscles were observed; number of viable cells as compared with the group to which water was added [9]: decreased |
| OC[C@H]1O[C@@H](O[C@H]2[C@H]3OC[C@@H]2OC(O)[C@H]3O)[C@H](O)[C@@H](O)[C@H]1O (mixture of isomers) [Agarobiose, agarobiose] | inhibit this iNOS expression | strong activity | + | + | 16 | 179 | disappeared | disappeared | disappeared | 8 | 405 | 32 | 1/10 | 1/10 | 1/10 | 170 | 16 | 289 | 8 | 317 | cell proliferation suppressed as compared with the control group ([6]; HL-60, agarobiose at 78 μg/ml, 48 hours): about 86%; antiproliferation activity against HL-60 cells (in words) ([6]; listed as group 4): an antiproliferation activity was observed; antiproliferation activity against HL-60 cells (in words) ([6]; listed as group 5): an antiproliferation activity was observed; antiproliferation activity against HL-60 cells (in words) ([6]; listed as peak at the elution time 8.87 min.): had both activities; antiproliferation activity against HL-60 cells (in words) ([6]; listed as peak at the elution time 9.40 min.): had both activities; apoptosis corpuscles [9]: apoptosis corpuscles were observed; number of viable cells as compared with the group to which water was added [9]: decreased |
